The source made the active and inactive calls. The rule behind the calls is not given here.
Columns and labels:
[1] = Disaggregation of copper-induced amyloid beta (1 to 42) (unknown origin) preformed fibrils at 50 uM measured after 24 hrs by transmission electron microscopic analysis
[2] = Disaggregation of copper-induced amyloid beta (1 to 42) (unknown origin) preformed fibrils at 50 uM measured after 24 hrs by ThT fluorescence assay
[3] = Antioxidant activity assessed as trolox equivalent antioxidant capacity; type: functional
[4] = target: T1, Amyloid-beta precursor protein (Homo sapiens, UniProt P05067); assay: Inhibition of amyloid beta (1 to 42) (unknown origin) self-induced aggregation at 20 uM incubated for 24 hrs by Thioflavin T based fluorometric assay relative to control
T1 sequence (P05067 whole entry): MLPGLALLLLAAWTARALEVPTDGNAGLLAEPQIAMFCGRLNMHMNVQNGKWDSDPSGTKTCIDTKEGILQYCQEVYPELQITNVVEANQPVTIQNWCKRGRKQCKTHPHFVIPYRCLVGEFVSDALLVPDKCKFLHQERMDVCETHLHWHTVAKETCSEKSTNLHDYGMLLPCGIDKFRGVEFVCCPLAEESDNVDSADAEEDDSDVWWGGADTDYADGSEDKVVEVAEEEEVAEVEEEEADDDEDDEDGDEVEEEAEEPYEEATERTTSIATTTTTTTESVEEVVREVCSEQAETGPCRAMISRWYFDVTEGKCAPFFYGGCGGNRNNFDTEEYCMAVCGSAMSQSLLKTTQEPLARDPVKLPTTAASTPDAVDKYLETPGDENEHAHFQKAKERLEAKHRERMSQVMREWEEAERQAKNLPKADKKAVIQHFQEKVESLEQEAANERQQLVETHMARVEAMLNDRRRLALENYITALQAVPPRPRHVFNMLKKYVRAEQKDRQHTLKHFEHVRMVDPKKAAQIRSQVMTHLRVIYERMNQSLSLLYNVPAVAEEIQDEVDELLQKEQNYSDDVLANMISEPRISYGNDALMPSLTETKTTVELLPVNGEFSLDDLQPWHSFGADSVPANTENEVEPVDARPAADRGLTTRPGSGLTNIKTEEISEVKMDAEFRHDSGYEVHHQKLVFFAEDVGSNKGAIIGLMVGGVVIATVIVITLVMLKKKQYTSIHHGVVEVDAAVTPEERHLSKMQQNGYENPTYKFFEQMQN

[5] = target: T1, Amyloid-beta precursor protein; assay: Inhibition of amyloid beta (1 to 42) (unknown origin) self-induced aggregation incubated for 24 hrs by Thioflavin T based fluorometric assay
Histamine H3 receptor = Histamine H3 receptor (Homo sapiens, UniProt Q9Y5N1); assay: Antagonist activity at human H3 receptor by TR-FRET assay; type: functional
Sequence of Histamine H3 receptor (Q9Y5N1 whole entry): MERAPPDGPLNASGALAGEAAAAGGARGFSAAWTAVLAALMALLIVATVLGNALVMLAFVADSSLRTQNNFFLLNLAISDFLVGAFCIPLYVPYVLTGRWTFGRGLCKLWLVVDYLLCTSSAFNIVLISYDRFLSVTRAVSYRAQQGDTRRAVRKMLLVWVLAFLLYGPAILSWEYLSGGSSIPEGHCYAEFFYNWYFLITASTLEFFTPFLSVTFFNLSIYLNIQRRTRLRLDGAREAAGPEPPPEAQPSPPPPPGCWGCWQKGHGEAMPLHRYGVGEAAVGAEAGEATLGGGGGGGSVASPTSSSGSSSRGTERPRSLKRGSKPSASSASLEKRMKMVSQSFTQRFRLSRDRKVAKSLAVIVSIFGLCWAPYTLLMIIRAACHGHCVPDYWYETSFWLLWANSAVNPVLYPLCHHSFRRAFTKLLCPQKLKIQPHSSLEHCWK

[6] = Metal chelating activity assessed as compound-Fe3+ complex formation by UV-Vis spectroscopic analysis
[7] = Metal chelating activity assessed as compound-Cu2+ complex formation by UV-Vis spectroscopic analysis
[8] = target: T1, Amyloid-beta precursor protein; assay: Inhibition of amyloid beta (1 to 42) (unknown origin) self-induced aggregation at 20 uM incubated for 24 hrs by transmission electron microscopic analysis
[9] = target: T1, Amyloid-beta precursor protein; assay: Disaggregation of self-induced amyloid beta (1 to 42) (unknown origin) preformed fibrils assessed as reduction in fluorescence intensity at 20 uM after 24 hrs by thioflavin-T fluorescence assay relative to control; parameters: scale not given: the % may be the effect or the level left
[10] = Metal chelating activity assessed as formation of Cu2+-compound complex stoichiometry ratio of 2:1 in presence of CuCl2 by Job's plot analysis
[11] = Inhibition of copper-induced amyloid beta (1 to 42) (unknown origin) aggregation at 50 uM measured after 24 hrs by transmission electron microscopic analysis
[12] = target: T1, Amyloid-beta precursor protein; assay: Disaggregation of self-induced amyloid beta (1 to 42) (unknown origin) preformed fibrils at 20 uM measured after 24 hrs by transmission electron microscopic analysis
[13] = Metal chelating activity assessed as mole fraction required to show 2:1 stoichiometry ratio for compound-Cu2+ complex formation in presence of CuCl2 by Job's plot analysis
[14] = Inhibition of copper-induced amyloid beta (1 to 42) (unknown origin) aggregation at 50 uM measured after 24 hrs by thioflavin T based fluorescence assay

Row | SMILES | inhibition [4] | IC50 [5] | IC50 (Histamine H3 receptor) | Activity [6] | Activity [7] | Activity [3] | other results
1 | CCN(CC)CCCC(C)Nc1ccnc2cc(Cl)ccc12 (centres undefined) |  |  |  |  |  |  | Activity [1]: Active; Activity [2]: Active
2 | CN1CCN(CCCOc2ccc(/C=C/c3cc(=O)c(O)cn3C)cc2)CC1 | 75.7% | 6.02 µM | 0.353 µM |  |  | 0.73 | 
3 | O=c1cc(/C=C/c2ccc(OCCCN3CCOCC3)cc2)occ1O | 93.3% | 4.12 µM | 0.0688 µM |  |  | 4.39 | 
4 | CN(C)CCCOc1ccc(/C=C/c2cc(=O)c(O)co2)cc1 | 76.7% | 4.51 µM | 0.104 µM |  |  | 2.21 | 
5 | O=c1cc(/C=C/c2ccc(O)cc2)occ1O |  |  |  |  |  | 2.03 | 
6 | CN(C)CCCOc1ccc(/C=C/c2cc(=O)c(O)cn2C)cc1 | 70.4% | 6.18 µM | 0.0854 µM |  |  | 1.34 | 
7 | CCN(CC)CCCOc1ccc(/C=C/c2cc(=O)c(O)co2)cc1 | 94.6% | 3.95 µM | 0.0169 µM | Active | Active | 5.08 | 
8 | COc1cc(/C=C/C(=O)CC(=O)/C=C/c2ccc(O)c(OC)c2)ccc1O |  |  |  |  |  | 1.11 | 
9 | CN1CCN(CCCOc2ccc(/C=C/c3cc(=O)c(O)co3)cc2)CC1 | 89.8% | 5.54 µM | 0.178 µM |  |  | 4.05 | 
10 | Cc1c(C)c2c(c(C)c1O)CCC(C)(C(=O)O)O2 (centres undefined) |  |  |  |  |  | 1 | 
11 | Cn1cc(O)c(=O)cc1/C=C/c1ccc(OCCCN2CCOCC2)cc1 | 71.9% | 5.32 µM | 0.0301 µM |  |  | 1.35 | 

Now from value to compound, other results behind:

Row | inhibition [4] | IC50 [5] | IC50 (Histamine H3 receptor) | Activity [6] | Activity [7] | SMILES | Activity [3] | other results
12 | 74.7% | 7.01 µM | 0.00491 µM |  |  | Cc1oc(/C=C/c2ccc(OCCCN3CCCC3)cc2)cc(=O)c1O | 2.12 | 
13 | 15.7% |  | 0.0145 µM |  |  | Oc1cccc2ccc(/C=C/c3ccc(OCCCN4CCCCC4)cc3)nc12 | 0.96 | 
14 | 85.4% | 3.29 µM | 0.00337 µM | Active | Active | Cn1cc(O)c(=O)cc1/C=C/c1ccc(OCCCN2CCCC2)cc1 | 1.28 | 
15 | 17.6% |  | 0.016 µM |  |  | Oc1cccc2ccc(/C=C/c3ccc(OCCCN4CCCC4)cc3)nc12 | 0.73 | 
16 | 87% | 2.57 µM | 0.00474 µM | Active | Active | Cn1cc(O)c(=O)cc1/C=C/c1ccc(OCCCN2CCCCC2)cc1 | 1.23 | 
17 | 74.8% | 6.26 µM | 0.00265 µM |  |  | Cc1oc(/C=C/c2ccc(OCCCN3CCCCC3)cc2)cc(=O)c1O | 1.74 | 
18 | 90.8% | 3.26 µM | 0.00274 µM | Active | Active | O=c1cc(/C=C/c2ccc(OCCCN3CCCCC3)cc2)occ1O | 5.22 | inhibition [8]: Active; Activity [9]: 29.4%; Activity [10]: Active; inhibition [11]: Active; Activity [1]: Active; Activity [12]: Active; Activity [2]: Active; Activity (mole fraction) [13]: 0.682; inhibition [14]: Active
19 | 91.4% | 2.24 µM | 0.00825 µM | Active | Active | O=c1cc(/C=C/c2ccc(OCCCN3CCCC3)cc2)occ1O | 4.97 | inhibition [8]: Active; Activity [9]: 35.1%; Activity [10]: Active; inhibition [11]: Active; Activity [1]: Active; Activity [12]: Active; Activity [2]: Active; Activity (mole fraction) [13]: 0.671; inhibition [14]: Active
20 | 97.6% | 2.07 µM | 0.00218 µM | Active | Active | CCn1cc(O)c(=O)cc1/C=C/c1ccc(OCCCN2CCCC2)cc1 | 1.43 | 
21 | 85% | 5.38 µM | 0.00706 µM | Active | Active | CCN(CC)CCCOc1ccc(/C=C/c2cc(=O)c(O)cn2C)cc1 | 1.43 | 
22 | 86.8% | 3.05 µM | 0.00507 µM | Active | Active | CCn1cc(O)c(=O)cc1/C=C/c1ccc(OCCCN2CCCCC2)cc1 | 1.78 | 

Reference: ChEMBL document CHEMBL4811320, “Design, synthesis and biological evaluation of 2-styryl-5-hydroxy-4-pyrone derivatives and analogues as multiple functional agents with the potential for the treatment of Alzheimer's disease” (Bioorg Med Chem, 2021)
